Measurements from patent publication US9809623B2, “α4β7 peptide monomer and dimer antagonists” (Protagonist Therapeutics, Inc., priority 2014, dated 2017).
Like-named read-outs stand apart in the source and are kept apart here. Numbered stars: 1 amine (or outer) side, 2 acyl side, 3 side chain; on linkers, the order of the positions; unused ones are H or OH. Bridge positions count the residues as written; N and C are the ends. Square brackets hold non-standard residues; d marks the D form. Peptide text beside a SMILES is read from it. I, II: the chains in the order shown. ξ: configuration not given here. Phe(4-tBu) = CC(C)(C)c1ccc(C[C@H](N)C(=O)O)cc1; Diglycolyl = O=C(COCC(=O)[*:2])[*:1]; NMeR = CN[C@@H](CCCNC(=N)N)C(=O)O; β3hE = N[C@@H](CCC(=O)O)CC(=O)O; Thr(3ξ) = CC(O)[C@H](N)C(=O)O; Pen = CC(C)(S)[C@H](N)C(=O)O

What was measured:
α4β1 = α4β1 (Homo sapiens, UniProt P05556+P13612); assay: PBMC Memory T Cell Adhesion Assay, adhesion to VCAM-1; type: cell-based; conditions: memory T cells isolated from human PBMC donors; read-out: IC50 (nM), memory T cells, Integrin α4β1, Ligand VCAM-1
Chain of α4β1 (P13612 34-1032): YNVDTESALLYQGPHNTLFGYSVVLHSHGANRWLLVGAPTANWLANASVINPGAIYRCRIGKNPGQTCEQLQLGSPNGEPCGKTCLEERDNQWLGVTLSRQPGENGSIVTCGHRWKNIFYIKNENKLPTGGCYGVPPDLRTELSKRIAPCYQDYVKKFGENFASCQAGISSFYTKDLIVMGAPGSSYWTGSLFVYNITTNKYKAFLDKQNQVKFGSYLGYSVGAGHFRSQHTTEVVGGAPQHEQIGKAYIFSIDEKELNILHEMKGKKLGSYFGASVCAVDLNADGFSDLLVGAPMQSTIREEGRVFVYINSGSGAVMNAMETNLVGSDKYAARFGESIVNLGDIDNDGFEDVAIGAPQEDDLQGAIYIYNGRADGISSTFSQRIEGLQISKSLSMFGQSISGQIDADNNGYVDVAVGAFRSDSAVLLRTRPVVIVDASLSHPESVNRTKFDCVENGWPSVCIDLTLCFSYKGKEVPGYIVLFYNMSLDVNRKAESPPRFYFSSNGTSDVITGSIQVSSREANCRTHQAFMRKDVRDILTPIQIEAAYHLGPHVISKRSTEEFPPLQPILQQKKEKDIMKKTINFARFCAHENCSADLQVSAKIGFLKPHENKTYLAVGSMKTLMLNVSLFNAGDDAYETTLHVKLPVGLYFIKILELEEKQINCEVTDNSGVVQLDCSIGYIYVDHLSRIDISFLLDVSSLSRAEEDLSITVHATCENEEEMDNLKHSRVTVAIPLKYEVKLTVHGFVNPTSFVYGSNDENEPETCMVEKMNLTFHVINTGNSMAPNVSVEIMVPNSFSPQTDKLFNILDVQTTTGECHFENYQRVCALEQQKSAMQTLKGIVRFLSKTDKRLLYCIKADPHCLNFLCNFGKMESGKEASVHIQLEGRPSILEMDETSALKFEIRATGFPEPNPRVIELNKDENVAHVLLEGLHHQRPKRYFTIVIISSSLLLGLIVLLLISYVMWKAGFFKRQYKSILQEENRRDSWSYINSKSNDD
Chain of α4β1 (P05556 21-798): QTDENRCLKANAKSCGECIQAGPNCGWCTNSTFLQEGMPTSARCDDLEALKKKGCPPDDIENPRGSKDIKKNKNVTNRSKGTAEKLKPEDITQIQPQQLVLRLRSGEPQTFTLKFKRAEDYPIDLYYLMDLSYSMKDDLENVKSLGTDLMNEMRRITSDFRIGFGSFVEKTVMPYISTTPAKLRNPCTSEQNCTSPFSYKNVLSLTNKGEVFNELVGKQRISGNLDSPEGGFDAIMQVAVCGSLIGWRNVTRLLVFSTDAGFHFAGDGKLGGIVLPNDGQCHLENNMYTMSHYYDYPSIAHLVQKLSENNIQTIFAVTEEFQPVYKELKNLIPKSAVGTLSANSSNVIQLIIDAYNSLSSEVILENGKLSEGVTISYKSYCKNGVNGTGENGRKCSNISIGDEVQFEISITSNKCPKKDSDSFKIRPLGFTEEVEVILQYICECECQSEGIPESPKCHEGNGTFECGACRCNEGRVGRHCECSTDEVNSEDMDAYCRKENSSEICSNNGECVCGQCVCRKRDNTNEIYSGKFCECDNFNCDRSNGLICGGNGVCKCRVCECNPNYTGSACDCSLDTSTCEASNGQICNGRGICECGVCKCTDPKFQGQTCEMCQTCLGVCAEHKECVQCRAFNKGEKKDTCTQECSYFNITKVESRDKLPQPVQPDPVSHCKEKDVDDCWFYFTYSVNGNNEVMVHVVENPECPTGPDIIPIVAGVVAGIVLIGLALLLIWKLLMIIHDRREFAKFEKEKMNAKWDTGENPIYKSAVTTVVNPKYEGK
Description: Fresh CD4+/CD45RO+ memory T cells were isolated from human peripheral blood mononuclear cell (PBMC) donors by Aragen Bioscience Inc. (Morgan Hill, Calif.). The assay plate was prepared using IgG Fc capture antibody (donkey anti human) immobilized at 500 ng/well in 50 mM sodium bicarbonate buffer, pH 9.5, ON, 4C onto a Greiner Fluotrac plate (100 ul per well). The plate was rinsed two time with Blocking Buffer (25 mM Tris HCl, pH7.5, 150 mM NaCl, 1.5% BSA, 0.05% Tween), and blocked with Blocking Buffer for 2 hours at 37 C or 5 hours at RT using 200 ul per well. The Blocking Buffer was removed and either MAdCAM-1 or VCAM-1 at 400 ng/well in Blocking Buffer was added and the plate incubated overnight at 4C (100 ul per well). The plate was washed two times with Blocking Buffer, and rinsed once with 200 ul Binding Media (DMEM phenol red free, 10 mM HEPES, 1×Na pyruvate, 1× Glutamine, and supplemented with 1 mM MnCl2 prior to use). To prepare cells, approximately 25 million CD4+/CD45RO+ memory T cells were counted by trypan blue exclusion using a haemocytometer to determine viability and cell count. […] Fluorescence intensity was measured using a Molecular Devices Gemini EM Fluorescent Plate Reader (Ex 485/Em530, Bottom Read, Reading Sensitivity=20). IC50 curves are generated using Graph Pad Prism and the curves analyzed using analyzed using a non-linear regression (four parameters) algorithm. […]

[1] = Tissue exposure after oral administration, 8 days; type: in vivo; conditions: cynomolgus monkey; for level at time molar at 4 h: 4 hours after the last dose
Description: To determine tissue exposure following oral administration of Peptide X, Cynomolgus monkeys were dosed with Peptide X PO QD for 8 days at 12.5 mg/kg, 25 mg/kg or 75 mg/kg. The vehicle was 50 mM phosphate buffer, pH 7. Oral bioavailability in cyno (% F) was about 0.3%. Samples were collected 4 hours after the last dose.

[2] = tested on: C57BL/6 male mice, DSS colitis; type: in vivo
Description: Colitis was induced in C57BL/6 male mice (10 animals per group) by exposure to 3% DSS-treated drinking water from day 0 to day 5, when animals were shifted to normal drinking water. Once daily, animal deaths were recorded, and surviving animals were weighed and assessed visually for the presence of diarrhea and/or bloody stool. Immediately prior to sacrifice on day 9, colitis severity was assessed in all animals using video endoscopy, and the resulting images were scored for colitis severity by an observer blinded to group identity.
Starting on day 0, mice were given twice-daily oral doses of either a vehicle/sham control (Group 1) or Peptide X (Group 2: 10 mg/kg, PO, BID). On day 9, only the AM treatment dose was administered. Animals in Group 2 also were administered Peptide X in their drinking water at a concentration of 0.2 mg/mL. The drinking water bottle weights for Groups 1 and 2 were measured, and water consumption was used to estimate the peptide dose ingested via the drinking water. Based on daily water consumption, the average daily Peptide X dose from the combination of oral gavage and drinking water was estimated to be 49 mg/kg.
Mice were sacrificed on day 9, approximately four hours after the final of gavage dose administration. Spleen, Peyer's patches (PP), mesenteric lymph nodes (MLN), and blood were collected from each animal and processed for FACS analysis of α4 and β7 expression on TH memory cells. Takedown and FACS analysis occurred on the same day.
For PK measurements, colon sections from the proximal and distal colon were collected at ˜4 hours after the last AM dose and analyzed by mass spectrometry. Exposure in the proximal colon was approximately 3-fold higher than that in the distal colon (FIG. 12). The concentration of Peptide X in the blood was 84-fold and 31-fold lower compared to that in the proximal and distal colon, respectively. Nonetheless at this time point, the plasma concentration was ˜80-fold greater than the Peptide IC50 value for blocking α4β7 binding to MAdCAM.

[3] = tested on: C57BL/6 mice, DSS colitis; assay: Additional 9 day DSS colitis studies; type: in vivo, mouse
Description: In this 9 day DSS colitis study, C57BL/6 mice were treated with 3% DSS from Day 1 to Day 6, and switched to normal water until Day 10. Daily dosing was PO BID plus drinking water for Peptide X, and 25 mg/kg IP every 3 days for the anti-α4β7 antibody DATK32. PP and blood were collected and levels of α4β7+ memory T cells analyzed by FACS.

αLβ2 = αLβ2 (Homo sapiens, UniProt P05107+P20701); assay: IC50 for αLβ2 (assay not further described)
Chain of αLβ2 (P20701 26-1170): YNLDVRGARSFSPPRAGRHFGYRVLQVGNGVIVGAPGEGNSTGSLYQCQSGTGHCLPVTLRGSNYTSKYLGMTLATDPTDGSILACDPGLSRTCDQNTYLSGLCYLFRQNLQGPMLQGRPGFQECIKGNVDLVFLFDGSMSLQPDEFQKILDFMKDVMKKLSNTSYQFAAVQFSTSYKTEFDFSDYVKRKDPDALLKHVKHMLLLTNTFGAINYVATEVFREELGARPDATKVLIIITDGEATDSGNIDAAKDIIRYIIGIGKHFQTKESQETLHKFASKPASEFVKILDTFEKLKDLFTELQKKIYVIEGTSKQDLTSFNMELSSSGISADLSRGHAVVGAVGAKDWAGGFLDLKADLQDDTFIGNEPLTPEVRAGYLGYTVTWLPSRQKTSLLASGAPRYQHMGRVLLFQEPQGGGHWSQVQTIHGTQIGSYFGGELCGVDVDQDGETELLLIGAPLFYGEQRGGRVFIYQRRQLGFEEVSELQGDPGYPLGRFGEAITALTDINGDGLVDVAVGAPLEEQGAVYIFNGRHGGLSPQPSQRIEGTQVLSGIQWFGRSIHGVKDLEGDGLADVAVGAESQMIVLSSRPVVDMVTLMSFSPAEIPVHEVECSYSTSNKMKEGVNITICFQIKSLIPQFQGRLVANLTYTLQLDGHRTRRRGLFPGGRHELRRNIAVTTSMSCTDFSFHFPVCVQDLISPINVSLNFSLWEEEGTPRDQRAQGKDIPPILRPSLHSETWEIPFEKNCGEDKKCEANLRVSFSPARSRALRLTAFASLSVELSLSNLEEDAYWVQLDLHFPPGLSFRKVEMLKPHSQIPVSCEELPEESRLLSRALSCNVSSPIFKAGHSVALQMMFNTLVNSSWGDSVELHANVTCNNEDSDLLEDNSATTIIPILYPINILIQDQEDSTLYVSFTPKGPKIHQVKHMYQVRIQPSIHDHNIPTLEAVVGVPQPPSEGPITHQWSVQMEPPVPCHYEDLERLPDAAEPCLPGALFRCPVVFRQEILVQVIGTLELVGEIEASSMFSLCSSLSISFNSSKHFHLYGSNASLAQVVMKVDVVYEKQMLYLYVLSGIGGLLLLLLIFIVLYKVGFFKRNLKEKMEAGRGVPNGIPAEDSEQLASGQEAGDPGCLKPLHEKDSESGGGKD
Chain of αLβ2 (P05107 23-769): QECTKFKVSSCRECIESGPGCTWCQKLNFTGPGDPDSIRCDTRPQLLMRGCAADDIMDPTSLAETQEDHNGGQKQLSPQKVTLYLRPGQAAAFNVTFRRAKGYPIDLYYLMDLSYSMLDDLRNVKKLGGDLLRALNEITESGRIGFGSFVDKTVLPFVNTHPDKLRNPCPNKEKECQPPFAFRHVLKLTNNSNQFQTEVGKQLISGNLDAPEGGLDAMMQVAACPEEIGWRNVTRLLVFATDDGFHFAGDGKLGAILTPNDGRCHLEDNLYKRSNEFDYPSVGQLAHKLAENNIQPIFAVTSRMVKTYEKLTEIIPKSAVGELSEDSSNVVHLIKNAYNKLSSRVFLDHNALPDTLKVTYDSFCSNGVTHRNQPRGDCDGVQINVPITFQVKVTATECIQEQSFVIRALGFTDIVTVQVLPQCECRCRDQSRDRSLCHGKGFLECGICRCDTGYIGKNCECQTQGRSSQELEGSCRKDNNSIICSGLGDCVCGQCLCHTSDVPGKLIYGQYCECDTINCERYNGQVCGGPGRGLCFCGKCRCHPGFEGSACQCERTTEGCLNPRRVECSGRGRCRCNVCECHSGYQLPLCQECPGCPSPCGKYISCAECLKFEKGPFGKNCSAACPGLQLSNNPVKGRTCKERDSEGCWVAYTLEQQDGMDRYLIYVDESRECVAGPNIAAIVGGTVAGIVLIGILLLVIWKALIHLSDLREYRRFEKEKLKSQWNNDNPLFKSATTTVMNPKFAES
Description: Biochemical competition ELISA assays were performed for α4β7 and α4β1 integrins. The ELISA assay for α4β7 is based on binding of MAdCAM-1 to immobilized α4β7, whereas the α4β1 ELISA relies on binding of soluble α4β1 to immobilized VCAM-1. These assays are described in Example 2. Under 1 mM Mg^2+ binding conditions, the IC50 for Peptide X was 3 nM and >10,000 nM for α4β7 and α4β1, respectively. In addition, the IC50 for Peptide X was >100 uM for both α4β1 and αLβ2. The IC50 of Peptide X for α4β7 T cells was 1 nM.

[4] = 10 mg/kg PO BID plus 0.2 mg/mL in drinking water, day 9

Compound: CC(=O)N[C@@H]1C(=O)N(C)[C@@H](CCCNC(=N)N)C(=O)N[C@@H](CO)C(=O)N[C@@H](CC(=O)O)C(=O)N[C@@H](C(C)O)C(=O)N[C@@H](CC(C)C)C(=O)N[C@H](C(=O)N[C@@H](Cc2ccc(C(C)(C)C)cc2)C(=O)N[C@@H](CCC(=O)O)CC(=O)N[C@H](CCCCNC(=O)COCC(=O)NCCCC[C@@H](NC(=O)C[C@H](CCC(=O)O)NC(=O)[C@H](Cc2ccc(C(C)(C)C)cc2)NC(=O)[C@H]2NC(=O)[C@H](CC(C)C)NC(=O)[C@H](C(C)O)NC(=O)[C@H](CC(=O)O)NC(=O)[C@H](CO)NC(=O)[C@H](CCCNC(=N)N)N(C)C(=O)[C@@H](NC(C)=O)C(C)(C)SSC2(C)C)C(N)=O)C(N)=O)C(C)(C)SSC1(C)C (stereo partly drawn) [Peptide X, [Ac-Pen-(N-Me-Arg)-Ser-Asp-Thr-Leu-Pen-(Phe(4-tBu))-(β-homoGlu)-(D-Lys)]2-DIG] (I: Ac-[Pen][NMeR]SD[Thr(3ξ)]L[Pen][Phe(4-tBu)][β3hE][dK]-NH2 / II: Ac-[Pen][NMeR]SD[Thr(3ξ)]L[Pen][Phe(4-tBu)][β3hE][dK]-NH2; disulfide I:1-I:7, II:1-II:7; linker I:10-II:10 via Diglycolyl)
- IC50 (α4β1): > 100000 nM
- level at time molar at 4 h ([1]; colon, 12.5 mg/kg PO QD 8 days, read-out: Peptide X exposure, Colon): 4160 nM
- level at time molar at 4 h ([1]; colon, 25 mg/kg PO QD 8 days, read-out: Peptide X exposure, Colon): 1550 nM
- level at time molar at 4 h ([1]; colon, 75 mg/kg PO QD 8 days, read-out: Peptide X exposure, Colon): 15500 nM
- bioavailability ([1]; in vivo, oral, read-out: Oral bioavailability in cyno (% F)): ~0.3%
- level at time molar at 4 h ([1]; mesenteric lymph node, 12.5 mg/kg PO QD 8 days, read-out: Peptide X exposure, Mesenteric Lymph Node): 1500 nM
- level at time molar at 4 h ([1]; mesenteric lymph node, 25 mg/kg PO QD 8 days, read-out: Peptide X exposure, Mesenteric Lymph Node): 138 nM
- level at time molar at 4 h ([1]; mesenteric lymph node, 75 mg/kg PO QD 8 days, read-out: Peptide X exposure, Mesenteric Lymph Node): 1980 nM
- level at time molar at 4 h ([1]; plasma, 12.5 mg/kg PO QD 8 days, read-out: Peptide X exposure, Plasma): 2 nM
- level at time molar at 4 h ([1]; plasma, 25 mg/kg PO QD 8 days, read-out: Peptide X exposure, Plasma): 5 nM
- level at time molar at 4 h ([1]; plasma, 75 mg/kg PO QD 8 days, read-out: Peptide X exposure, Plasma): 21 nM
- level at time molar at 4 h ([1]; small intestine, 12.5 mg/kg PO QD 8 days, read-out: Peptide X exposure, Small Intestine): 661 nM
- level at time molar at 4 h ([1]; small intestine, 25 mg/kg PO QD 8 days, read-out: Peptide X exposure, Small Intestine): 293 nM
- level at time molar at 4 h ([1]; small intestine, 75 mg/kg PO QD 8 days, read-out: Peptide X exposure, Small Intestine): 7840 nM
- endoscopy score (mean±SD) [2, 4]: 1.78±1.5
- reduction of endoscopy scores vs vehicle [2, 4]: 32%
- effect on weight loss, fluid intake, colon weight or length, presence of bloody stool and diarrhea ([2]; 10 mg/kg PO BID plus drinking water): no significant effect
- visual assessment of endoscopy images ([2]; compared to the vehicle control): reduced colonic friability and improved mucosal healing
- Exposure in the proximal colon higher than in the distal colon ([2]; mouse, in vivo): approximately 3 fold
- decrease in percentage of α4β7+ memory cells relative to total cells in Peyer's Patches ([2]; vs vehicle, day 9): 55%
- decrease in percentage of α4β7+ memory cells relative to total cells in the MLN ([2]; vs vehicle, day 9): 23%
- increase in total α4β7 memory cells per mL blood ([2]; vs vehicle, day 9): 42%
- increase in total α4β7 memory cells recovered from the spleen ([2]; vs vehicle, day 9): 73%
- body weight loss and mucosal injury as assessed by endoscopy ([3]; DSS mice orally dosed daily for 9 days): dose-dependent reduction in body weight loss and mucosal injury
- CD4+CD44highCD45RBlowβ7+ T cells in MLN, Peyer's Patches, spleen and blood ([3]; DSS mice orally dosed daily for 9 days, FACS): dose dependent reduction
- α4β7+ T cells in gut lymphoid tissues and blood ([3]; PO BID plus drinking water): reduced α4β7+ T cells in gut lymphoid tissues and redirected them to blood
- IC50 (αLβ2): > 100 µM
